Format: in vitro ADME, human
Experimental: To determine if microfabricated microneedles could be used to enhance transdermal drug delivery, arrays of microneedles were made using a deep plasma etching technique. Their ability to penetrate human skin without breaking was tested and the resulting changes in transdermal transport were measured.
Arrays of microneedles were fabricated having extremely sharp tips (radius of curvature less than 1 μm), and are approximately 150 μm long. Because the skin surface is not flat due to dermatoglyphics and hair, the full length of these microneedles will not penetrate the skin. All experiments were performed at room temperature (23±2° C.).
To quantitatively assess the ability of microneedles to increase transdermal transport, calcein permeability of human epidermis with and without inserted microneedle arrays was measured. Calcein crosses skin very poorly under normal circumstances and therefore represents an especially difficult compound to deliver.
Insertion of microneedles into skin was capable of dramatically increasing permeability to calcein. When microneedles were inserted and left embedded in the skin, calcein permeability was increased by more than 1000-fold. Insertion of microneedles for 10 s, followed by their removal, yielded an almost 10,000-fold increase. […]

## O=C(O)CN(CC(=O)O)Cc1cc2c(cc1O)Oc1cc(O)c(CN(CC(=O)O)CC(=O)O)cc1C21OC(=O)c2ccccc21 [Calcein]
  Passive permeability across unaltered skin: very low
human
  Increase in skin permeability to calcein: about 25,000 fold

From patent US6743211B1, “Devices and methods for enhanced microneedle penetration of biological barriers” (Georgia Tech Research Corporation, priority 1999, dated 2004)
